Earlier results, collected in paper PMC5129521 (Diabetes, Obesity & Metabolism, 2016).

Conditions: mice

## CCCCCCCCCCCCCCCC(=O)N[C@@H](CCC(=O)NCCCC[C@H](NC(=O)[C@H](C)NC(=O)[C@H](C)NC(=O)[C@H](CCC(N)=O)NC(=O)CNC(=O)[C@H](CCC(=O)O)NC(=O)[C@H](CC(C)C)NC(=O)[C@H](Cc1ccc(O)cc1)NC(=O)[C@H](CO)NC(=O)[C@H](CO)NC(=O)[C@@H](NC(=O)[C@H](CC(=O)O)NC(=O)[C@H](CO)NC(=O)[C@@H](NC(=O)[C@H](Cc1ccccc1)NC(=O)[C@@H](NC(=O)CNC(=O)[C@H](CCC(=O)O)NC(=O)[C@H](C)NC(=O)[C@@H](N)Cc1cnc[nH]1)[C@@H](C)O)[C@@H](C)O)C(C)C)C(=O)N[C@@H](CCC(=O)O)C(=O)N[C@@H](Cc1ccccc1)C(=O)N[C@H](C(=O)N[C@@H](C)C(=O)N[C@@H](Cc1c[nH]c2ccccc12)C(=O)N[C@@H](CC(C)C)C(=O)N[C@H](C(=O)N[C@@H](CCCNC(=N)N)C(=O)NCC(=O)N[C@@H](CCCNC(=N)N)C(=O)NCC(=O)O)C(C)C)[C@@H](C)CC)C(=O)O [Liraglutide]
  Terminal plasma half‐life: ~7 h
